Assay results from PMC5754411 (Cancer Chemotherapy and Pharmacology, 2017).
Where two headings read alike, the source gives them in different places.

Assays:
[1] = design: method as in PMID 28303528; conditions: humans, cited from earlier work
[2] = clinical; conditions: plasma
Protocol: Signed and dated written informed consent was obtained from each patient before participation in the study and before the performance of any procedures. After informed consent was obtained, eligible participants were given the choice to be admitted to the clinical research unit on day − 1 or on day 1. A summary of the study design can be found in Fig. 1. […] Subjects continued fasting until 2 h after the start of the IV infusion, at which time a non-standardised light meal was served. The radiolabelled dose contained approximately 100 nCi (3.7 kBq) radioactivity and was administered into one arm of the subject; the contralateral arm was used for pharmacokinetic sampling and clinical laboratory blood draws. The syringe for IV drug administration was connected to a Perfusor Space Infusion Pump (B. Braun), which was set to administer 7 mL in 15 min. Blood samples were taken pre-dose and at 1, 1.5, 2 (just before start of IV infusion), 2.125 (halfway through the IV infusion), 2.25 (just before end of infusion), 2.33, 2.66, 3, 4, 6, and 12 h. Sampling was done on each morning of days 2, 3, 4, 5, 7, 9, 11, 13, 15, and 22. Plasma was divided in two sets: one set was sent to Xceleron Inc. (Germantown, MD, USA) for the determination of plasma concentrations of the ^14C-microtracer by AMS, and the other set was stored at the Antoni van Leeuwenhoek Hospital until it received pharmacokinetic analysis at the Good Laboratory Practice–licensed laboratory of the pharmacy. Plasma was separated from blood by centrifugation (3,000 rpm, 15 min, 4 °C) and was stored frozen at ≤ − 70 °C in polypropylene tubes before and after analysis. […] Vital signs assessments, haematology assessment, and blood chemistry assessments were done frequently to make sure that the patients were still in sufficient condition to remain on treatment. […] The study was approved by the local independent ethics committee and was conducted in accordance with local regulations, the Declaration of Helsinki, and International Conference on Harmonisation Good Clinical Practice Guidelines.
In brief, separation was carried out using an HPLC Acquity I Class pump (Waters, Milford, MA, USA) supplied with a SunFire C18 column (50 mm × 2.1 mm, 5 µm, Waters). Gradient elution was applied using 20 mM ammonium acetate in water (mobile phase A) and 0.1% formic acid in acetonitrile-methanol (50:50, v/v; mobile phase B). Each batch of experimental samples was run against freshly prepared calibration standards. Replicate quality control samples at three concentrations were stored and analysed alongside study samples. The analytical range was from 1 to 500 ng/mL.
Total ^14C-radioactivity concentrations in plasma samples were determined using AMS. Plasma samples were directly aliquoted into tubes containing copper oxide powder (CuO). The samples were graphitised and analysed by a Single Stage Accelerator Mass Spectrometer (SSAMS) 250 kV system (National Electrostatics Corp., Middleton, WI, USA). […] Samples were analysed by an Agilent 1200 HPLC system (Agilent Technologies, Palo Alto, CA, USA) equipped with a wavelength UV detector set to 254 nm. Separation was achieved using a Phenomenex Kinetex 2.6 µ biphenyl column (100 Å, 100 × 3.0 mm). Mobile phase A and B consisted of 20 mM ammonium acetate in water and 0.1% formic acid in acetonitrile–methanol (50:50, v/v), respectively. Column oven temperature was set at 40 °C, and run-time was 18 min. […] The fractions were graphitised and analysed by SSAMS. Each batch of experimental samples was run against freshly prepared calibration standards at seven concentrations in duplicates. Replicate quality control samples at three concentrations were stored and also analysed alongside study samples. Finally, F po was calculated as the ratio of the dose-normalised AUC of the oral dose to the IV dose.

[3] = Sprague–Dawley rats; ref data not published; cited from earlier work
[4] = beagle dogs; ref data not published; cited from earlier work
[5] = cited from earlier work

| bioavailability ([2]; human, oral, 300 mg) | AUC(0-inf) ([2]; human, po, 300 mg) | AUC(0-t) ([2]; human, po, 300 mg) | Cmax ([2]; human, po, 300 mg) | t max ([2]; human, po, 300 mg, t max, oral 300 mg niraparib, n = 6, median and range) | half-life ([2]; human, po, 300 mg, t ½, oral 300 mg niraparib, n = 6, sampling 22 days) | t max ([2]; oral 300 mg niraparib, n = 6, median and range) | SMILES | Presence of metabolite in circulation [1] | Dose recovered as the parent compound in faeces ([1]; oral radiolabelled niraparib) | Total orally administered dose recovered in excreta ([1]; urine and faeces, radiolabelled niraparib) | F po [3] | F po [4] | t max ([5]; previous phase I dose-escalation study, range 1.5–4.1 h) | t ½ ([5]; previous study, shorter sampling period) |
| --- | --- | --- | --- | --- | --- | --- | --- | --- | --- | --- | --- | --- | --- | --- |
|  |  |  |  |  |  |  | O=C(O)c1cccc2cn(-c3ccc(C4CCCNC4)cc3)nc12 (centres unmarked) [M1] | substantially present in circulation |  |  |  |  |  |  |
| 72.7% | 47400 ng·h/mL | 46900 ng·h/mL | 1270 ng/mL | 4 h | ~95.6 h | 4.01 (3.07–6.03) h | NC(=O)c1cccc2cn(-c3ccc([C@@H]4CCCNC4)cc3)nc12 [niraparib] |  | approximately 20% | approximately 90% | 27% | 57% | around 3.1 h | 36.2 h |
